Where a name gives a salt, the structure may show the parent alone.
Columns and labels:
[1] = system: ERK1/2(Thr202/Tyr204) phosphorylation (MEK-dependent) in A375 cells; assay: Cellular Phospho-p44/42 MAPK (Erk1/2) (Thr202/Tyr204) Assay; format: cell-based; settings: Homo sapiens, A-375, 1-hour incubation, pERK1/2 (Thr202/Tyr204) In-Cell Western normalized to GAPDH
Procedure, shortened: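 A375 cells exposed 1 h to 10-point 1:3 dilutions (top 20–1 μM, 0.5% DMSO), then fixed and stained for pERK1/2 (Thr202/Tyr204) by In-Cell Western. Signal normalized to GAPDH per well; DMSO and 1 μM reference inhibitor define 0 and 100% inhibition.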

P-gp (MDR1) = molecular target: T1, P-gp (MDR1) (Homo sapiens, UniProt P08183); assay: Efflux ratio in MDR1 transfected LLC-PK1 cells; format: in vitro ADME; settings: pig, Papp(B−A)/Papp(A−B)
T1 construct: expressed in transfected cells; host or cells: LLC-PK1 (porcine kidney) cells transfected with MDR1
Description: (§1) Both LLC-PK1 and MDR1 transfected LLC-PK1 cells were cultured and plated according to manufacturer's recommendations with the exception that the passage media contained only 2% fetal bovine serum to extend passage time out to seven days.
(§2) Both positive and negative controls were used to assess functionality of P-gp or BCRP efflux in the assays. Stock solutions for assay controls and the test article were prepared in DMSO for final test concentrations of 10 and 1 μM, respectively. Final organic concentration in the assay was 1%. All dosing solutions contained 10 μM lucifer yellow to monitor LLC-PK1 or MDCKII cell monolayer integrity.
(§3) For the apical to basolateral determination (A to B), 75 μL of the test article in transport buffer were added to the apical side of the individual transwells and 250 μL of basolateral media, without compound or lucifer yellow, were added to each well. For the basolateral to apical determination (B to A), 250 μL of test article in transport buffer were added to each well and 75 μL transport buffer, without compound or lucifer yellow, were added to each transwell. All tests were performed in triplicate, and each compound was tested for both apical to basolateral and basolateral to apical transport. The plates were incubated for 2 hours on a Lab-Line Instruments Titer Orbital Shaker (VWR, West Chester, PA) at 50 rpm and 37° C. with 5% CO2. All culture plates were removed from the incubator and 50 μL of media were removed from the apical and basolateral portion of each well and added to 150 μL of 1 μM labetalol in 2:1 acetonitrile (acetonitrile): H2O, v/v.
(§4) The plates were read using a Molecular Devices (Sunnyvale, CA) Gemini Fluorometer to evaluate the lucifer yellow concentrations at excitation/emission wavelengths of 425/535 nm. These values were accepted when found to be below 2% for apical to basolateral and 5% basolateral to apical flux across the MDR1-transfected LLC-PK1 or BCRP-transfected MDCKII cell monolayers. The plates were sealed and the contents of each well analyzed by LC-MS/MS. The compound concentrations were determined from the ratio of the peak areas of the compound to the internal standard (labetalol) in comparison to the dosing solution.
(§5) The LC-MS/MS system was comprised of an HTS-PAL autosampler (Leap Technologies, Carrboro, NC), an HP1200 HPLC (Agilent, Palo Alto, CA), and a MDS Sciex 4000 Q Trap system (Applied Biosystems, Foster City, CA). […] The total run time, including re-equilibration, for a single injection was 1.2 minutes. Mass spectrometric detection of the analytes was accomplished using the ion spray positive mode. Analyte responses were measured by multiple reaction monitoring (MRM) of transitions unique to each compound (the protonated precursor ion and selected product ions for each test article and m/z 329 to m/z 162 for labetalol, the internal standard).
An efflux ratio is calculated from the mean apical to basolateral (A−B) Papp data and basolateral to apical (B−A) Papp data: Efflux ratio=Papp(B−A)/Papp(A−B)

[2] = MDR1 LLC-PK1 and BCRP MDCKII Permeability Assay: permeability coefficient (Papp); format: in vitro ADME; settings: MDCK, test article 1 μM, 37° C.
Description: as §1
BCRP transfected MDCKII canine P-gp knockout cell line was cultured and plated according to manufacturer's recommendations.
as §2, §3, §4, §5

BCRP (hBCRP) = molecular target: T2, BCRP (hBCRP) (Homo sapiens, UniProt Q9UNQ0); assay: Efflux ratio in BCRP transfected MDCKII canine P-gp knockout cells; format: in vitro ADME; settings: Papp(B−A)/Papp(A−B), read-out: Efflux ratio MDCKII-hBCRP knock-in,canine pg-P KO
T2 construct: expressed in transfected cells; host or cells: MDCKII (canine kidney) cells, canine P-gp knockout, transfected with BCRP
T2 sequence (Q9UNQ0 1-655): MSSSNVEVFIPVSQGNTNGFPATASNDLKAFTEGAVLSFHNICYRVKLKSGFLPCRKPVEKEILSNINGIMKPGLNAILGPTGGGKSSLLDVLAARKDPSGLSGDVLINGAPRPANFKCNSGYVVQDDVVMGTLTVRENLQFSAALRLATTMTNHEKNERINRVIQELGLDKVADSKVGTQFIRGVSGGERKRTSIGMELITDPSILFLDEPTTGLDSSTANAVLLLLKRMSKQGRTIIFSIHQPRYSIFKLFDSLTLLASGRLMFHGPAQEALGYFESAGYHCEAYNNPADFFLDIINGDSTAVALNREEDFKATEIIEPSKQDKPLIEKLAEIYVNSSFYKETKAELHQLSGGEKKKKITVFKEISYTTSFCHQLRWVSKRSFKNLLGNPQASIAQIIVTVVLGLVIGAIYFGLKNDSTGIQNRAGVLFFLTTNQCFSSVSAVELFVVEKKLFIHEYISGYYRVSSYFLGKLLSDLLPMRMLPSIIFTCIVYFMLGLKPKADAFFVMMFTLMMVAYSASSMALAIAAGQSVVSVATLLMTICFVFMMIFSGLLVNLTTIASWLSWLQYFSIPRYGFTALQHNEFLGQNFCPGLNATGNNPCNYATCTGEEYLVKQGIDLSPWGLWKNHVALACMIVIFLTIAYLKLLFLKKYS
Procedure, shortened: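 Test article at 1 μM final (1% organic) in A→B and B→A directions across MDCKII P-gp knockout monolayers expressing BCRP, 2 h at 37° C., triplicate; lucifer yellow checked monolayer integrity. Concentrations by LC-MS/MS against labetalol internal standard; efflux ratio = Papp(B−A)/Papp(A−B).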

T1 sequence (P08183 whole entry): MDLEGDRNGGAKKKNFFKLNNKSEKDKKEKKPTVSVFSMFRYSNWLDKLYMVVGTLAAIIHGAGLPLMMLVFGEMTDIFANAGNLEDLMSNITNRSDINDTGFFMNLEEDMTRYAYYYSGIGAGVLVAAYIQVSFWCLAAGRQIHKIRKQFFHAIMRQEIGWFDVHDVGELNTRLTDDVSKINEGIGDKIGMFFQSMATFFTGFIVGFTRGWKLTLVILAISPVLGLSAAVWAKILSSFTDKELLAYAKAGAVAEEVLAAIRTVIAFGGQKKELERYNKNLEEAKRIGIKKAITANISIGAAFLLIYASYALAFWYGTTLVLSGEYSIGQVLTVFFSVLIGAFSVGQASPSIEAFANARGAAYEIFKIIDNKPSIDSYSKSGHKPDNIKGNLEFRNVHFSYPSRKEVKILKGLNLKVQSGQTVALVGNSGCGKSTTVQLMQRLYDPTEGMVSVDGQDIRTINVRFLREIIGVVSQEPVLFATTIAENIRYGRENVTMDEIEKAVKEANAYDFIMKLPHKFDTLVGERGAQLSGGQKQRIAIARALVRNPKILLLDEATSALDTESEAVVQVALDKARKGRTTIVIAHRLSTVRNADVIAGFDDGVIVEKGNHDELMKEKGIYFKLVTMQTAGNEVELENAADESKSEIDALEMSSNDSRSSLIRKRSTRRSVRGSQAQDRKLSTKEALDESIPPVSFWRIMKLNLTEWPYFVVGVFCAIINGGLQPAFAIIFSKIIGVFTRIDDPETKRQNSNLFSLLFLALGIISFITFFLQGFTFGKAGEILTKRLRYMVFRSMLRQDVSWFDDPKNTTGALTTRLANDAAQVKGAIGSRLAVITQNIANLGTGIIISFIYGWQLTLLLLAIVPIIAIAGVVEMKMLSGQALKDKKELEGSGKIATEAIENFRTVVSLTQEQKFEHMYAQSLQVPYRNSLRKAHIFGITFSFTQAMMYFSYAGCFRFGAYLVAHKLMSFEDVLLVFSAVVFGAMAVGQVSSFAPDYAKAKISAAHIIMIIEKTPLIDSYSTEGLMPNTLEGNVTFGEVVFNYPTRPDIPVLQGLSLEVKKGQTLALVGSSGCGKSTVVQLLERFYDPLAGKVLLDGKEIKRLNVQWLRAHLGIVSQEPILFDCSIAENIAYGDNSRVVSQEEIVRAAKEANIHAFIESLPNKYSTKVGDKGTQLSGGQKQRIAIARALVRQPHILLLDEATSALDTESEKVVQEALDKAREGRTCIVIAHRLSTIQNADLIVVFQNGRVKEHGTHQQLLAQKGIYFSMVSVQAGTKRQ

Compound | IC50 [1] [nM] | efflux ratio at 2 h, 1 μM (P-gp (MDR1)) | Papp at 2 h, 1 μM [2] [×10⁻⁶ cm/s] | efflux ratio at 2 h, 1 μM (BCRP (hBCRP))
Cn1c(Nc2ccc(I)cc2F)c2c(c(Cl)c1=O)CCN(OCCO)C2=O [Example 38, 5-chloro-8-((2-fluoro-4-iodophenyl)amino)-2-(2-hydroxyethoxy)-7-methyl-3,4-dihydro-2,7-naphthyridine-1,6(2H,7H)-dione] | 7 | 4.5 | 24.6 | 2.9
Cn1c(Nc2ccc(Br)cc2F)c2c(c(F)c1=O)CCN(OCCO)C2=O [Example 39, 8-((4-bromo-2-fluorophenyl)amino)-5-fluoro-2-(2-hydroxyethoxy)-7-methyl-3,4-dihydro-2,7-naphthyridine-1,6(2H,7H)-dione] | 62 | 3.9 | 32.3 | 3.2
Cc1c2c(c(Nc3ccc(I)cc3F)n(C)c1=O)C(=O)N(OCCO)CC2 [Example 40, 8-((2-fluoro-4-iodophenyl)amino)-2-(2-hydroxyethoxy)-5,7-dimethyl-3,4-dihydro-2,7-naphthyridine-1,6(2H,7H)-dione] | 4 | 3.6 | 28.4 | 1.9
Cn1c(Nc2ccc(Br)cc2F)c2c(c(Br)c1=O)CCN(OCCO)C2=O [Example 42, 5-bromo-8-((4-bromo-2-fluorophenyl)amino)-2-(2-hydroxyethoxy)-7-methyl-3,4-dihydro-2,7-naphthyridine-1,6(2H,7H)-dione] | 143 | 2.8 | 29.4 | 3.3
CCc1ccc(Nc2c3c(c(C)c(=O)n2C)CCN(OCCO)C3=O)c(F)c1 [Example 44, 8-((4-ethyl-2-fluorophenyl)amino)-2-(2-hydroxyethoxy)-5,7-dimethyl-3,4-dihydro-2,7-naphthyridine-1,6(2H,7H)-dione] | 13 | 1.1 | 33 | 2.7
Cc1c2c(c(Nc3ccc(C4CC4)cc3F)n(C)c1=O)C(=O)N(OCCO)CC2 [Example 45, 8-((4-cyclopropyl-2-fluorophenyl)amino)-2-(2-hydroxyethoxy)-5,7-dimethyl-3,4-dihydro-2,7-naphthyridine-1,6(2H,7H)-dione] | 20 | 2.2 | 31.8 | 1.3
Cc1c2c(c(Nc3ccc(I)cc3F)n(C)c1=O)C(=O)NCC2 [Example 48, 8-((2-fluoro-4-iodophenyl)amino)-5,7-dimethyl-3,4-dihydro-2,7-naphthyridine-1,6(2H,7H)-dione] | 6 | 1.4 | 16.2 | 1
Cn1c(Nc2ccc(I)cc2F)c2c(cc1=O)CCNC2=O [Example 49, 8-((4-iodo-2-fluorophenyl)amino)-7-methyl-3,4-dihydro-2,7-naphthyridine-1,6(2H,7H)-dione trifluoroacetate] | 2 | 1.4 | 39.3 | 1
CSc1ccc(Nc2c3c(cc(=O)n2C)CCNC3=O)c(F)c1 [Example 50, 8-((2-fluoro-4-(methylthio)phenyl)amino)-7-methyl-3,4-dihydro-2,7-naphthyridine-1,6(2H,7H)-dione trifluoroacetate] | 12 | 1.2 | 36.7 | 1.3
CCc1ccc(Nc2c3c(cc(=O)n2C)CCNC3=O)c(F)c1 [Example 51, 8-((4-ethyl-2-fluorophenyl)amino)-7-methyl-3,4-dihydro-2,7-naphthyridine-1,6(2H,7H)-dione] | 26 | 1.2 | 41.2 | 1.2
Cn1c(Nc2ccc(C3CC3)cc2F)c2c(cc1=O)CCNC2=O [Example 52, 8-((4-cyclopropyl-2-fluorophenyl)amino)-7-methyl-3,4-dihydro-2,7-naphthyridine-1,6(2H,7H)-dione] | 30 | 1.3 | 36.8 | 1.2

Reference: patent publication US11802127B2, “3,4-dihydro-2,7-naphthyridine-1,6(2H,7H)-diones as MEK inhibitors” (Pfizer Inc., priority 2021, dated 2023)
